Laboratory results reported in patent US10780090B2, “Heteroaryl compounds useful as inhibitors of SUMO activating enzyme” (Millennium Pharmaceuticals, Inc., priority 2014, dated 2020).

Target: recombinant human SAE enzyme (Homo sapiens (Human), UniProt Q9UBT2)
Assay: SAE HTRF enzyme assay
Assay type: biochemical
Conditions: for inhibition at 0.111 µM: read-out: Percent Inhibition
How it was run: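 Human SAE (0.11 nM) with 0.5 μM ATP, 0.125 μM Sumo-Flag and 0.01 μM Ubc9-GST in HEPES pH 7.5, 5 mM MgCl2, 250 μM GSH; 105 min at 24 °C. Stopped with EDTA; HTRF read after 2 h with Eu-anti-Flag and APC-anti-GST. Percent inhibition or IC50 reported.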

[1] = SAE inhibition, class symbols, legend in nM

Chain of recombinant human SAE enzyme (Q9UBT2 whole entry): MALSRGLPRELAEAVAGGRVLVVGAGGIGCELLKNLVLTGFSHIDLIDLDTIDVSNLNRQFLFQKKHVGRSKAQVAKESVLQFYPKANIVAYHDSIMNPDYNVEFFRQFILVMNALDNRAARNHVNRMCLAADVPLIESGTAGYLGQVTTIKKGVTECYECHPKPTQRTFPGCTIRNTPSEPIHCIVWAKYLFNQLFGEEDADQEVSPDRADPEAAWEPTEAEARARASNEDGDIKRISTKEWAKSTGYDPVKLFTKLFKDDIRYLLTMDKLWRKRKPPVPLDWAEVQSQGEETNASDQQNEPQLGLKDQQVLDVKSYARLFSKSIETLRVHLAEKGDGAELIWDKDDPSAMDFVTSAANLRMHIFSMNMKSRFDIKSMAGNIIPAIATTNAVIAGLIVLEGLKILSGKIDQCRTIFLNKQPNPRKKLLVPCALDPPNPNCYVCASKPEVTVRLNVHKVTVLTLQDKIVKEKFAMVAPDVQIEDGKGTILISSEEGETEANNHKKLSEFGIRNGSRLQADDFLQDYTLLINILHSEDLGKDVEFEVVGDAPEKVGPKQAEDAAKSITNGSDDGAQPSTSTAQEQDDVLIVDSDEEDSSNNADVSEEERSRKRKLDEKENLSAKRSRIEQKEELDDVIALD
Chain of recombinant human SAE enzyme (Q9UBE0 whole entry partner): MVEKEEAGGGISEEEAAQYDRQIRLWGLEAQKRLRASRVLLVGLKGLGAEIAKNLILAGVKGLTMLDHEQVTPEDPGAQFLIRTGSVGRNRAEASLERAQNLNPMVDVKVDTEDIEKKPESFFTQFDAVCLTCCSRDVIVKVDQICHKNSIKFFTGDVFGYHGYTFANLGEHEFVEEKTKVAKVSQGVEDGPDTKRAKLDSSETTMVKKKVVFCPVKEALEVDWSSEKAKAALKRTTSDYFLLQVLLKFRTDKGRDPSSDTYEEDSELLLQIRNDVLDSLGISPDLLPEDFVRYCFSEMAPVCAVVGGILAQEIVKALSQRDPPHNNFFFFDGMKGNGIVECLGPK

SMILES	inhibition at 0.111 µM (Concentration 0.111 μM) [%]	IC50 (class symbols A/B/C) [nM]	Percent Inhibition (SAE inhibition at compound concentration 0.111 μM) [%]	IC50 [1] [nM]	Percent Inhibition (Concentration 0.111 μM)
NS(=O)(=O)OC[C@H]1C[C@@H](Nc2ncncc2C(=O)c2cc(C(=O)c3cccc(Cl)c3)c(Cl)s2)C[C@@H]1O [I-207, {(1R,2S,4R)-4-[(5-{[5-Chloro-4-(3-chlorobenzoyl)-2-thienyl]carbonyl}pyrimidin-4-yl)amino]-2-hydroxycyclopentyl}methyl sulfamate]	51	100 to 1000			
NS(=O)(=O)OC[C@H]1C[C@@H](Nc2ncncc2C(=O)c2cc([C@@H]3OCCc4cc(Cl)ccc43)cs2)C[C@@H]1O [I-357, [(1R,2S,4R)-4-[[5-[4-[(1R)-6-chloroisochroman-1-yl]thiophene-2-carbonyl]pyrimidin-4-yl]amino]-2-hydroxy-cyclopentyl]methyl sulfamate and [(1R,2S,4R)-4-[[5-[4-[(1S)-6-chloroisochroman-1-ylthiophene-2-carbonyl]pyrimidin-4-yl]amino}-2-hydroxy-cyclopentyl]methyl sulfamate]			97	< 10	
NS(=O)(=O)OC[C@H]1C[C@@H](Nc2ncncc2C(=O)c2cc([C@H](O)c3cccc(Cl)c3)co2)C[C@@H]1O (single isomer, unassigned) [I-42a, {(1R,2S,4R)-4-[(5-{4-[(R)-(3-chlorophenyl)(hydroxy)methyl]-2-furoyl}pyrimidin-4-yl)amino]-2-hydroxycyclopentyl}methyl sulfamate or {(1R,2S,4R)-4-[(5-{4-[(S)-(3-chlorophenyl)(hydroxy)methyl]-2-furoyl}pyrimidin-4-yl)amino]-2-hydroxycyclopentyl}methyl sulfamate]		< 10			97
NS(=O)(=O)OC[C@H]1C[C@@H](Nc2ncncc2C(=O)c2cc(C3OCCc4ccc(Cl)cc43)cs2)C[C@@H]1O (single isomer, unassigned) [I-261b, [(1R,2S,4R)-4-{[5-({4-[(1R)-7-chloro-3,4-dihydro-1H-isochromen-1-yl]-2-thienyl}carbonyl)pyrimidin-4-yl]amino}-2-hydroxycyclopentyl]methyl sulfamate or [(1R,2S,4R)-4-{[5-({4-[(1S)-7-chloro-3,4-dihydro-1H-isochromen-1-yl]-2-thienyl}carbonyl)pyrimidin-4-yl]amino}-2-hydroxycyclopentyl]methyl sulfamate]		< 10			99
COCc1sc(C(=O)c2cncnc2N[C@@H]2C[C@H](COS(N)(=O)=O)[C@@H](O)C2)cc1C(O)c1cccc(Cl)c1 (single isomer, unassigned) [I-7b, [(1R,2S,4R)-4-{[5-({4-[(R)-(3-chlorophenyl)(hydroxy)methyl]-5-(methoxymethyl)-2-thienyl}carbonyl)pyrimidin-4-yl]amino}-2-hydroxycyclopentyl]methyl sulfamate or [(1R,2S,4R)-4-{[5-({4-[(S)-(3-chlorophenyl)(hydroxy)methyl]-5-(methoxymethyl)-2-thienyl}carbonyl)pyrimidin-4-yl]amino}-2-hydroxycyclopentyl]methyl sulfamate]		< 10			98
NS(=O)(=O)OC[C@H]1C[C@@H](Nc2ncncc2C(=O)c2cc(CN3CCC(F)(F)C3)cs2)C[C@@H]1O [I-228, [(1R,2S,4R)-4-{[5-({4-[(3,3-Difluoropyrrolidin-1-yl)methyl]-2-thienyl}carbonyl)pyrimidin-4-yl]amino}-2-hydroxycyclopentyl]methyl sulfamate]	29	100 to 1000			
CC[C@H](C)[C@H](N)C(=O)O[C@H]1C[C@H](Nc2ncncc2C(=O)c2cc([C@@H]3OCCc4ccc(Cl)cc43)c(C)s2)C[C@@H]1COS(N)(=O)=O.Cl [I-363, [(1S,2R,4R)-4-[[5-[4-[(1R)-7-chloroisochroman-1-yl]-5-methyl-thiophene-2-carbonyl]pyrimidin-4-yl]amino]-2-(sulfamoyloxymethyl)cyclopentyl (2S,3S)-2-amino-3-methyl-pentanoate hydrochloride]				100 to 1000	
C[C@](O)(c1ccccc1)c1coc(C(=O)c2cncnc2N[C@@H]2C[C@H](COS(N)(=O)=O)[C@@H](O)C2)c1 (single isomer, unassigned) [I-58a, {(1R,2S,4R)-2-hydroxy-4-[(5-{4-[(1S)-1-hydroxy-1-phenylethyl]-2-furoyl}pyrimidin-4-yl)amino]cyclopentyl}methyl sulfamate or {(1R,2S,4R)-2-hydroxy-4-[(5-{4-[(1R)-1-hydroxy-1-phenylethyl]-2-furoyl}pyrimidin-4-yl)amino]cyclopentyl}methyl sulfamate]		10 to 100			87
COc1ccc(Cl)cc1[C@@H](O)c1cc(C(=O)c2cncnc2N[C@@H]2C[C@H](COS(N)(=O)=O)[C@@H](O)C2)sc1Cl (mixture of isomers) [I-63, [(1R,2S,4R)-4-{[5-({5-chloro-4-[(R)-(5-chloro-2-methoxyphenyl)(hydroxy)methyl]-2-thienyl}carbonyl)pyrimidin-4-yl]amino}-2-hydroxycyclopentyl]methyl sulfamate and [(1R,2S,4R)-4-{[5-({5-chloro-4-[(S)-(5-chloro-2-methoxyphenyl)(hydroxy)methyl]-2-thienyl}carbonyl)pyrimidin-4-yl]amino}-2-hydroxycyclopentyl]methyl sulfamate]		< 10			97
NS(=O)(=O)OC[C@H]1C[C@@H](Nc2ncncc2C(=O)c2cc(Cc3ccccc3)c(Cc3ccccc3)s2)C[C@@H]1O [I-144, [(1R,2S,4R)-4-({5-[(4,5-Dibenzyl-2-thienyl)carbonyl]pyrimidin-4-yl}amino)-2-hydroxycyclopentyl]methyl sulfamate]	93	< 10			
NS(=O)(=O)OC[C@H]1C[C@@H](Nc2ncncc2C(=O)c2cc(CO)cs2)C[C@@H]1O [I-230, {(1R,2S,4R)-2-hydroxy-4-[(5-{[4-(hydroxymethyl)-2-thienyl]carbonyl}pyrimidin-4-yl)amino]cyclopentyl}methyl sulfamate]	26	100 to 1000			
C=C(C)[C@@H](O)c1coc(C(=O)c2cncnc2N[C@@H]2C[C@H](COS(N)(=O)=O)[C@@H](O)C2)c1.C=C(C)[C@H](O)c1coc(C(=O)c2cncnc2N[C@@H]2C[C@H](COS(N)(=O)=O)[C@@H](O)C2)c1 (mixture of isomers) [I-197, {(1R,2S,4R)-2-Hydroxy-4-[(5-{4-[(1S)-1-hydroxy-2-methylprop-2-en-1-yl]-2-furoyl}pyrimidin-4-yl)amino]cyclopentyl)methyl sulfamate and {(1R,2S,4R)-2-Hydroxy-4-[(5-{4-[(1R)-1-hydroxy-2-methylprop-2-en-1-yl]-2-furoyl}pyrimidin-4-yl)amino]cyclopentyl}methyl sulfamate]		10 to 100			69
NS(=O)(=O)OC[C@H]1C[C@@H](Nc2ncncc2C(=O)c2cc([C@@H]3OCCc4ccc(F)cc43)cs2)C[C@@H]1O (single isomer, unassigned) [I-267a, [(1R,2S,4R)-4-{[5-({4-[(1R)-7-fluoro-3,4-dihydro-1H-isochromen-1-yl]-2-thienyl}carbonyl)pyrimidin-4-yl]amino}-2-hydroxycyclopentyl]methyl sulfamate or [(1R,2S,4R)-4-{[5-({4-[(1S)-7-fluoro-3,4-dihydro-1H-isochromen-1-yl]-2-thienyl}carbonyl)pyrimidin-4-yl]amino}-2-hydroxycyclopentyl]methyl sulfamate]		10 to 100			65
COCc1coc(C(=O)c2cncnc2N[C@@H]2C[C@H](COS(N)(=O)=O)[C@@H](O)C2)c1 [I-223, [(1R,2S,4R)-2-Hydroxy-4-({5-[4-(methoxymethyl)-2-furoyl]pyrimidin-4-yl}amino)cyclopentyl]methyl sulfamate]	28	100 to 1000			
NS(=O)(=O)OCC1CC(Nc2ncncc2C(=O)c2cc(C(O)(CCO)c3cccc(Cl)c3)c(Cl)s2)CC1O (mixture of isomers) [I-49, [(1R,2S,4R)-4-{[5-({5-Chloro-4-[(1S)-1-(3-chlorophenyl)-1,3-dihydroxypropyl]-2-thienyl}carbonyl)pyrimidin-4-yl]amino}-2-hydroxycyclopentyl]methyl sulfamate and [(1R,2S,4R)-4 {[5-({5-Chloro-4[(1R)-1-(3-chlorophenyl)-1,3-dihydroxypropyl]-2-thienyl}carbonyl)pyrimidin-4-yl]amino}-2-hydroxycyclopentyl]methyl sulfamate]		< 10			98
CN1CCC[C@]1(c1cccc(Cl)c1)c1csc(C(=O)c2cncnc2N[C@@H]2C[C@H](COS(N)(=O)=O)[C@@H](O)C2)c1 (mixture of isomers) [I-227, [(1R,2S,4R)-4-{[5-({4-[(2S)-2-(3-chlorophenyl)-1-methylpyrrolidin-2-yl]-2-thienyl}carbonyl)pyrimidin-4-yl]amino}-2-hydroxycyclopentyl]methyl sulfamate and [(1R,2S,4R)-4-{[5-({4-[(2R)-2-(3-chlorophenyl)-1-methylpyrrolidin-2-yl]-2-thienyl}carbonyl)pyrimidin-4-yl]amino}-2-hydroxycyclopentyl]methyl sulfamate]		100 to 1000			23
Cc1sc(C(=O)c2cncnc2N[C@@H]2C[C@H](COS(N)(=O)=O)[C@@H](O)C2)cc1[C@H](C)c1cccc(Cl)c1 (single isomer, unassigned) [I-135a, [(1R,2S,4R)-4-{[5-({4-[(1R)-1-(3-chlorophenyl)ethyl]-5-methyl-2-thienyl}carbonyl)pyrimidin-4-yl]amino}-2-hydroxycyclopentyl]methyl sulfamate or [(1R,2S,4R)-4-{[5-({4-[(1S)-1-(3-chlorophenyl)ethyl]-5-methyl-2-thienyl}carbonyl)pyrimidin-4-yl]amino}-2-hydroxycyclopentyl]methyl sulfamate]		10 to 100			82
